Test results published in paper PMC5797126, “Identification of influenza polymerase inhibitors targeting C-terminal domain of PA through surface plasmon resonance screening” (Scientific Reports, 2018).

How the values were obtained:
[1] = system: influenza virus (A/WSN/33); assay: microbe, parasite or virus in culture; format: cell-based; details: for IC50: unidentified influenza virus, WSN, MDCK, 24 h, read-out: Viral Yield Reduction Assay IC50
in vitro [2] = details: human
[3] = target: PAC (C-terminal domain of PA, residues 256–716 of A/WSN/33) (Influenza A virus, UniProt P15659); assay: biochemical; format: binding, influenza A/WSN/33
influenza RNP = influenza RNP (Influenza A virus, UniProt P15659); assay: cell-based
in vitro [4] = details: dog

SMILES | inhibition of influenza viral yield (in words) [1] | IC50 [1] [µM] | CC50 at 24 h (in vitro [2]) [µM] | cytotoxicity in MDCK cells (in words) (MDCK cells) | Kd [3] [µM] | IC50 (influenza RNP) [µM] | CC50 at 24 h (in vitro [4]) [µM]
O=c1c2c(O)c(Cc3ccccc3)c(=O)n(CCO)c2n(-c2ccccc2)c(=O)n1-c1ccccc1 [Compound S2a, 6-benzyl-5-hydroxy-8-(2-hydroxyethyl)-1,3-diphenylpyrido[2,3-d]pyrimidine-2,4,7(1H,3H,8H)-trione] | dose-dependent inhibition of influenza virus | 7.74 ± 6.02 | 84.6 ± 17.3 | slight cytotoxicity at their highest tested concentration | 1.77 ± 0.78 | 9.69 ± 3 | > 100
Cc1ccccc1-n1c(NCCCN2CCOCC2)nc2ccccc2c1=O [Compound S1b, 2-[(3-Morpholinopropyl)amino]-3-(2-methylphenyl)quinazolin-4(3H)-one] | – | > 100 | > 100 | – | – | 87.8 ± 21.8 | > 100
Cn1c(=O)c(Nc2ccccc2)c(O)c2c(=O)n(-c3ccccc3)c(=O)n(-c3ccccc3)c21 [Compound S2f, 5-hydroxy-8-methyl-1,3-diphenyl-6-(phenylamino)pyrido[2,3-d]pyrimidine-2,4,7(1H,3H,8H)-trione] | inability to attenuate influenza virus | > 100 | > 100 | – | – | 62.4 ± 22.4 | > 100
Cc1ccc(-n2c(NCCCN3CCOCC3)nc3ccccc3c2=O)cc1 [Compound S1c, 2-[(3-Morpholinopropyl)amino]-3-(4-methylphenyl)quinazolin-4(3H)-one] | – | – | > 100 | – | – | – | –
COc1c(C(C)c2ccccc2)c(=O)n(C)c2c1c(=O)n(-c1ccccc1)c(=O)n2-c1ccccc1 (centres unmarked) [Compound S2d, 5-methoxy-8-methyl-1,3-diphenyl-6-(1-phenylethyl)pyrido[2,3-d]pyrimidine-2,4,7(1H,3H,8H)-trione] | dose-dependent inhibition of influenza virus | 3.18 ± 2.44 | 66.6 ± 6.09 | – | > 25 | > 12.5 | 35.6 ± 9.24
CC(=O)n1c(=O)c(C(C)c2ccccc2)c(O)c2c(=O)n(-c3ccccc3)c(=O)n(-c3ccccc3)c21 (centres unmarked) [Compound S2e, 8-acetyl-5-hydroxy-1,3-diphenyl-6-(1-phenylethyl)pyrido[2,3-d]pyrimidine-2,4,7(1H,3H,8H)-trione] | dose-dependent inhibition of influenza virus | 5.11 ± 4.22 | > 100 | – | 50.9 ± 25.5 | 6.69 ± 7.49 | 53.1 ± 9.25
CC(c1ccccc1)c1c(O)c2c(=O)n(-c3ccccc3)c(=O)n(-c3ccccc3)c2[nH]c1=O (centres unmarked) [Compound S2b, 5-hydroxy-1,3-diphenyl-6-(1-phenylethyl)pyrido[2,3-d]pyrimidine-2,4,7(1H,3H,8H)-trione] | dose-dependent inhibition of influenza virus | 4.96 ± 3.84 | > 100 | – | 16.2 ± 8.3 | 14.2 ± 3.6 | 42.8 ± 9
O=c1c2ccccc2nc(NCCN2CCNCC2)n1-c1ccccc1 [Compound S1a, 2-[(2-(Piperazino)ethyl)amino]-3-phenylquinazolin-4(3H)-one] | – | – | > 100 | – | – | – | –
O=c1c2ccccc2nc(NCCCN2CCOCC2)n1-c1ccc(F)cc1 [Compound S1d, 3-(4-Fluorophenyl)-2-((3-morpholinopropyl)amino)quinazolin-4(3H)-one] | – | – | > 100 | – | – | – | –
CC(c1ccccc1)c1c(O)c2c(=O)n(-c3ccccc3)c(=O)n(-c3ccccc3)c2n(C)c1=O (centres unmarked) [Compound S2c, 5-hydroxy-8-methyl-1,3-diphenyl-6-(1-phenylethyl)pyrido[2,3-d]pyrimidine-2,4,7(1H,3H,8H)-trione] | – | – | 97.1 ± 16.1 | – | – | – | –
